This is an account of results in PMC8050608 (The Korean Journal of Physiology & Pharmacology : …, 2021).

For orientation: inhibition means the share of the control response that was lost under treatment.

Molecules are shown by their SMILES. Where two headings read alike, the source gives them in different places.

Assay [1] deals with T1, ORAI1 (Homo sapiens, UniProt Q96D31). Type of assay: cell-based. The conditions noted are these: HEK-293T, read-out: % inhibition at 100 μM.
Assay [2] deals with T1, ORAI1. In kind it is cell-based. To be noted: HEK-293T, read-out: % inhibition at 100 μM. This is another data set of the same source.

T1 sequence (Q13586 23-685): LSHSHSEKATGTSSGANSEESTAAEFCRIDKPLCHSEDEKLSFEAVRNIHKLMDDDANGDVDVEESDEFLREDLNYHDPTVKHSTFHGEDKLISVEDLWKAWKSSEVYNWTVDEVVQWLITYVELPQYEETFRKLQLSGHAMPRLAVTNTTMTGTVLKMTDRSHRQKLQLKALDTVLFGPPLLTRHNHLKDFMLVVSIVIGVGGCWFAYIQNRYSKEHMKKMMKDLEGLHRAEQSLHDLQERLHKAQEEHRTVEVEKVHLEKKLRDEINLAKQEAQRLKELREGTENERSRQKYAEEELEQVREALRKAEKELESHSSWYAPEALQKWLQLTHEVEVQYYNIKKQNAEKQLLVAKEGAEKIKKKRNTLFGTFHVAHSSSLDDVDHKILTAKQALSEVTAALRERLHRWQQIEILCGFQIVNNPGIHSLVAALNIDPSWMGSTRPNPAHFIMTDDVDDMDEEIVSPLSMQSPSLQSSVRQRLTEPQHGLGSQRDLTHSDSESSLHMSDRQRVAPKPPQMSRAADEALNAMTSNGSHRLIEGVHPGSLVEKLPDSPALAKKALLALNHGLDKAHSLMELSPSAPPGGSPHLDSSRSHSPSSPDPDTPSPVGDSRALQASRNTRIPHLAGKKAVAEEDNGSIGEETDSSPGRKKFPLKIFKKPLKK
T1 sequence (Q96D31 whole entry): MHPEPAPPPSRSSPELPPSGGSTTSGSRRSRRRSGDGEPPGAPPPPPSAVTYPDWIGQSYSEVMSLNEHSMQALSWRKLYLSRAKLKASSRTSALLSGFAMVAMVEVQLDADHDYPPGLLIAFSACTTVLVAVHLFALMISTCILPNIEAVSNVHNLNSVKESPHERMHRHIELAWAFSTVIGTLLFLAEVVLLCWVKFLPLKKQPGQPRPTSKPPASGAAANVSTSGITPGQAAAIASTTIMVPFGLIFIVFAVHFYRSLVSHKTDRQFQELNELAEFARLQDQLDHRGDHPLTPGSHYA

With `COc1ccc([C@H]2OC[C@H]3[C@@H]2CO[C@@H]3c2cc(OC)c(OC)c(OC)c2)cc1OC` [magnolin], the inhibition at 100 µM in assay [1] turned out to be 29.7%.
Turning to `COc1ccc([C@H]2OC[C@H]3[C@@H]2CO[C@@H]3c2ccc(OC)c(OC)c2)cc1OC` [eudesmin], the inhibition at 100 µM in assay [2] was 24.7%.
